Experimental data reported in US6274334A, “Monoclonal antibody, cell line and immunoassay for ractopamine” (The United States of America as represented by the …, priority 2000, dated 2001).
Where “and” joins values, the source holds several entries; their conditions need not be identical. Equal values may be shown once. Where a name gives a salt, the structure may show the parent alone.

Experiments:
[1] = system: antibody produced by hybridoma 5G10; experiment: Competitive indirect ELISA for specificity of the 5G10 antibody (buffer); format: binding, mouse; conditions: for IC50: means of three separate experiments on three different days, racemic ractopamine average of 15 experiments; for Cross-reactivity: ratio of IC50 for racemic ractopamine to that of test compound times 100; for poorer ligand relative to (1R,3R) stereoisomer of ractopamine: relative to (1R,3R) ractopamine; for competition curve: competitors up to 10,000 ng/mL
Experimental: The supernatant culture fluid from the cloned hybridomas may also be screened to select for those producing antibodies having a high affinity for ractopamine. Affinity may be measured using a variety of well known techniques, such as ELISA, RIA or equilibrium dialysis using labelled ractopamine. Competitive indirect ELISA (CI-ELISA) is preferred, and is conducted at a final antibody concentration (dilution from tissue culture supernatant) to give 50% of maximal binding to a ractopamine coated substrate or assay well. In accordance with this embodiment, the antibody containing supernatant is added to a ractopamine conjugate-coated solid substrate such as the wells of an assay plate, together with a range of concentrations of free ractopamine as a competitor. Following incubation and washing, bound antibody in the wells is determined in the same manner as the indirect-ELISA. Percent inhibition may be calculated as (1-B/B0)×100 where B is the optical density (OD) of a well with a competitor and B0 is the mean OD of the wells without competitor (control). […] However, for even greater accuracy, the affinity may be alternatively measured at 50% inhibition (IC50).
(§1) The checkerboard method was used to determine the optimum amount of coating antigen-ractopamine-glutarate-BSA (0.1 to 1 μg/well), primary antibody (1:4000 to 1:14,000), and secondary antibody (1:5000 to 1:50,000) required for the indirect competition ELISA. […] Ninety-six well flat bottom ELISA plates were coated with 500 ng/well of ractopamine-glutarate-BSA in 50 mM bicarbonate buffer, pH 9.6, and allowed to shake for 2 hours using an orbital shaker after which the plates were washed 5 times with PBST. Excess binding sites in each well were blocked by incubating with a 1% solution of Teleostean® cold water fish gelatin for 1 hour after which each well was washed 5 times with PBST. Primary antibody (5G10), diluted to 1:14,000, was added (50 μL/well) in the presence of competitor (100 μL/well) and was incubated for 1.5 hours. Competitors were incubated at concentrations of 0, 0.1, 0.5, 1, 5, 10, 50, 100, 500, 1000, 5000, and 10,000 ng/mL. A racemic ractopamine calibration curve was used in every experiment as a quality control. Washing wells five times with PBST terminated the reactions. Goat anti-mouse IgG peroxidase conjugate, diluted 1:50,000 (100 μL/well), was incubated for 1 hour. A TMB substrate solution was used during color development (30 min); the color development was stopped by adding 50 μL/well of 2 N H2 SO4. All incubations were conducted at 37° C. The plates were read at 450 nm and the data analyzed using a four-parameter logistic equation for the competitors that produced competition curves.

5G10 monoclonal antibody = experiment: Competitive ELISA in diluted bovine urine (matrix effects); format: binding, mouse
Experimental: as §1
Ractopamine (0, 0.1, 0.5, 1, 5, 10, 50, 100, 500, 1000, 5000, and 10,000 ng/mL) was added to bovine urine samples diluted 1:2, 1:5, 1:10, and 1:20 with PBST. Urine was collected from a Holstein cow that had not received any ractopamine treatment. Immunoassays in diluted matrices were run according to the procedure described in Example 2. The resulting competition data were fit to a four-parameter logistic equation using the program manager provided by the plate reader (Bio-Rad® Laboratories, Hercules, Calif.) and the IC50 values were determined. The IC50 and B0 from each diluted urine curve were compared with IC50 and B0 values generated from the PBST standard curve. Ractopamine in a 1:10 urine dilution at concentrations of 1, 5, 10, 20 ng/mL were divided and stored at -20° C. until used. For determination of intra-assay variation, each concentration of the spiked urine samples was pipetted into 12 wells, along with the appropriate standard curve ([…], 12 levels) and the data processed using the spiked samples as replicated unknowns. Inter-assay variation was determined in a similar manner on five separate days with duplicate wells for each level of spiked sample.

ractopamine antibody = experiment: Immunoaffinity column retention; format: binding, mouse; conditions: C-14 labeled, eluted with 0-100% MeOH
Experimental: Ten milliliters of acites containing ractopamine antibody were diluted with 0.1 M acetate buffer (1:3) and centrifuged. The diluted ascites was passed through a protein-G column and non-bound material was washed off with 0.1 M acetate buffer, pH 5.0, followed by 0.1 M glycine, pH 2.8 to elute the IgG. The protein concentration was determined by OD280 and confirmed by the method of Bradford. The IgG purity was confirmed by 10% SDS-PAGE. Purified IgG was conjugated with CNBr-Sepharose according to a standard procedure. Five milligrams of IgG was conjugated with 1 mL of CNBr-Sepharose to produce the immunoaffinity beads. The immunoaffinity beads were packed to a screening column. A solution containing approximately equal amounts of C-14 labeled ractopamine and ractopamine glucuronide was applied to the column. The column was subsequently eluted with 0, 10%, 30%, 50%, 70% and 100% MeOH; eluants were collected and counted for C-14 activity to verify recoveries. […] Thus, the ractopamine IAC retained both ractopamine and ractopamine metabolites, and has the potential to be used for the rapid isolation of ractopamine and (or) ractopamine metabolites from solution. Such a technique would have wide application in the preparation of samples undergoing a ractopamine confirmatory assay.

polyclonal antibodies = polyclonal antibodies generated from rabbits; cited from earlier work
hogs = conditions: dietary, relative to untreated control animals; cited from earlier work
[2] = Wicker et al. 1995; cited from earlier work
[3] = in words; cited from earlier work
[4] = species dosed with ractopamine HCl; cited from earlier work

Structure (SMILES) | IC50 [1] | Cross-reactivity [1] | other results
CC(CCc1ccc(O)cc1)NCC(O)c1ccc(O)cc1 (racemic) [Ractopamine (racemic), (1R*, 3R*), (1R*, 3S*)-4-hydroxy-β-[[[3-(4-hydroxyphenyl)-1-methylpropyl]amino]methyl]-benzenemethanol hydrochloride] |  | 100% | limit of detection ([1]; 80% B/B0 (IC20)): 0.5 ng/mL; IC50 ([1]; hydrochloride): 2.69 ± 0.36 ng/mL; IC50 ([1]; listed as racemic ractopamine, hydrochloride): 2.7 ng/mL; IC50 (5G10 monoclonal antibody; buffer (PBST)): 2.49 ng/mL; IC50 (5G10 monoclonal antibody; urine dilution 1:2): 11.58 ng/mL; IC50 (5G10 monoclonal antibody; urine dilution 1:5): 4.62 ng/mL; IC50 (5G10 monoclonal antibody; urine dilution 1:10): 3.16 ng/mL; IC50 (5G10 monoclonal antibody; urine dilution 1:20): 3.02 ng/mL; retention on immunoaffinity column (ractopamine antibody): The radioactivity was mainly in the 50% and 100% MeOH fractions; IC50 (polyclonal antibodies): 4.2 ng/mL; growth and carcass effects (hogs): increased growth rates, feed efficiencies, and greater yields of boneless, closely trimmed retail cuts; cross-reaction in immunoassay kits [2]: cross-react poorly with ractopamine
C[C@H](CCc1ccc(O)cc1)NC[C@H](O)c1ccc(O)cc1 [(1R, 3R) -ractopamine] | 0.55 ± 0.09 ng/mL | 489% | detection limit ([1]; in PBST): 0.1 ng/mL; biological activity [3]: confers biological activity to the molecule
C[C@@H](CCc1ccc(O)cc1)NC[C@H](O)c1ccc(O)cc1 [(1R, 3S) -ractopamine] | 291 ± 32 ng/mL | 0.9% | decrease of antibody binding (factor) ([1]; α-methyl group in (S) configuration): 100
C[C@H](CCc1ccc(O)cc1)NC[C@@H](O)c1ccc(O)cc1 [(1S, 3R) -ractopamine] | 2.00 ± 0.37 ng/mL | 134% | 
C[C@@H](CCc1ccc(O)cc1)NC[C@@H](O)c1ccc(O)cc1 [(1S, 3S) -ractopamine] | 140 ± 23 ng/mL | 1.9% | 
CCCCNCC(O)c1ccc(O)cc1 (stereo not drawn) [Bamethane] | 831 ± 11 ng/mL | 0.3% | 
CC(C)(C)NCC(O)c1cc(Cl)c(N)c(Cl)c1 (stereo not drawn) [Clenbuterol] |  | < 0.1% | competition curve [1]: did not produce competition curves; cross reaction with the 5G10 antibody ([1]; in words): did not cross react with the 5G10 antibody
CC(Cc1ccc(O)cc1)NCC(O)c1cc(O)cc(O)c1 (stereo not drawn) [Fenoterol] | 2682 ± 350 ng/mL | 0.1% | 
C[C@H](CCc1ccc(O)cc1)NCCc1ccc(O)cc1 [R-des-OH-ractopamine] | 1.59 ± 0.09 ng/mL | 169% | 
C[C@@H](CCc1ccc(O)cc1)NCCc1ccc(O)cc1 [S-des-OH-ractopamine] | 25.2 ± 1.9 ng/mL | 10.7% | 
CC(C)(C)NCC(O)c1ccc(O)c(CO)c1 (stereo not drawn) [Salbutamol] |  | < 0.1% | competition curve [1]: did not produce competition curves

More lines, main results first:

IC50 [1] | Structure (SMILES) | Cross-reactivity [1] | other results
50.3 ± 8.1 ng/mL | CC(CCc1ccc(O)cc1)NCCc1ccc(O)c(O)c1 (racemic) [Dobutamine] | 5.3% | 
263 ± 20 ng/mL | CC(CCc1ccc(O[C@@H]2O[C@H](C(=O)O)[C@@H](O)[C@H](O)[C@H]2O)cc1)NCC(O)c1ccc(O)cc1 (single isomer, unassigned) [Ractopamine glucuronide A] | 1% | poorer ligand relative to (1R,3R) stereoisomer of ractopamine [1]: over 100 times
87.8 ± 5.0 ng/mL | CC(CCc1ccc(O[C@@H]2O[C@H](C(=O)O)[C@@H](O)[C@H](O)[C@H]2O)cc1)NCC(O)c1ccc(O)cc1 (single isomer, unassigned) [Ractopamine glucuronide B] | 3.1% | poorer ligand relative to (1R,3R) stereoisomer of ractopamine [1]: over 100 times
1391 ± 127 ng/mL | CC(COc1ccccc1)NC(C)C(O)c1ccc(O)cc1 (stereo not drawn) [Isoxsuprine] | 0.2% | 
2.6 ng/mL and 2.62 ± 0.08 ng/mL | COc1ccc(C(O)CNC(C)CCc2ccc(O)cc2)cc1 (stereo not drawn) [LY227273] | 103% | 
0.70 ± 0.04 ng/mL | CC(CCc1ccc(O)cc1)NCC(O)c1ccc(O[C@@H]2O[C@H](C(=O)O)[C@@H](O)[C@H](O)[C@H]2O)cc1 (stereo partly drawn) [Ractopamine glucuronide C] | 384% | affinity relative to (1R,3R) ractopamine ([1]; in words): bound to the antibody with an affinity almost as great as (1R,3R) ractopamine; identification as metabolite [4]: has been identified in various species dosed experimentally with ractopamine HCl
73.8 ± 4.4 ng/mL | CC(NCCc1ccc(O)cc1)C(O)c1ccc(O)cc1 (stereo not drawn) [Ritodrine] | 3.6% | 
1519 ± 116 ng/mL | OCc1cc(C(O)CNCCCCCCOCCCCc2ccccc2)ccc1O (stereo not drawn) [Salmeterol] | 0.2% | 
